This is an account of results in ChEMBL document CHEMBL2169838, “Synthesis and biological evaluation of the 1-arylpyrazole class of σ(1) receptor antagonists: identification of 4-{2-[5-methyl-1-(naphthalen-2-yl)-1H-pyrazol-3-yloxy]ethyl}morpholine (S1RA, E-52862)” (J Med Chem, 2012).

The structures appear in SMILES notation. Activity calls are given as the source filed them. No cut-off for these calls is given here.

The term IC50 denotes the midpoint of a concentration-inhibition curve. High values mean weaker potency in that assay, low ones greater potency in that assay. As usually defined, the Ki is a measure of affinity in units of concentration, obtained from inhibition or displacement. A lower Ki goes with higher affinity. As usually defined, the inhibition in vivo is the change of the read-out against control, counted positive when it falls.

The nature of data set [1]: Intrinsic clearance in human liver microsomes assessed as per mg of protein at 10 uM. Particulars: read-out: CLH. In kind it is ADME, Microsome. Background: Liver microsomes are vesicles of endoplasmic reticulum, rich in cytochrome P450 enzymes.
Data set [2] addresses Voltage-gated inwardly rectifying potassium channel KCNH2 (Homo sapiens, UniProt Q12809).
Description: Inhibition of human ERG transfected in HEK293 cell membranes by whole cell patch clamp assay
Data set [3] has as its target Sigma non-opioid intracellular receptor 1 (Homo sapiens, UniProt Q99720). As to the kind of experiment: biochemical.
Description: Displacement of [3H](+)pentazocine from human sigma 1 receptor transfected in HEK293 cell membranes after 120 mins by scintillation counter
The nature of data set [4]: Displacement of [3H]di-o-tolylguanidine from sigma 2 receptor in guinea pig brain membranes after 120 mins by scintillation counter. In kind it is cell membranes, Cavia porcellus, Membrane.
The subject of data set [5] is Mus musculus. As to the kind of experiment: Analgesic activity in CD1 mouse assessed as inhibition of capsaicin-induced mechanical hypersensitivity at 16 mg/kg, ip administered 15 mins prior to capsaicin challenge measured 30 mins post capsaicin challenge. In kind it is functional. The following applies: route intraperitoneal.
Data set [6] has as its system Mus musculus. As to the kind of experiment: Inhibition of capsaicin-induced mechanical hypersensitivity in CD1 mouse assessed as paw withdrawal latency at 32 mg/kg, ip administered 15 mins prior to capsaicin challenge measured 30 mins post capsaicin challenge. In kind it is functional. The following applies: route intraperitoneal.
For data set [7], the system named is Mus musculus. As to the kind of experiment: Antiallodynic activity in CD1 mouse partial sciatic nerve ligation model assessed as inhibition of mechanical allodynia at 16 to 64 mg/kg, ip administered 30 mins by von Frey test. In kind it is functional, organism-based.
The test system of data set [8] is Mus musculus. As to the kind of experiment: Antihyperalgesic activity in CD1 mouse partial sciatic nerve ligation model assessed as inhibition of thermal hyperalgesia at 16 to 64 mg/kg, ip administered 45 mins by plantar test. In kind it is functional, organism-based.
Data set [9] concerns Mus musculus. As to the kind of experiment: Neurotoxicity in CD1 mouse assessed as motor impairment at 32 to 64 mg/kg, ip measured after 30 to 180 mins by rotarod test. In kind it is toxicity, organism-based. The arrangement: route intraperitoneal. The following applies: in vivo. For orientation: The rotarod test checks motor coordination on a turning rod.

Sequence of Sigma non-opioid intracellular receptor 1 (Q99720 whole entry): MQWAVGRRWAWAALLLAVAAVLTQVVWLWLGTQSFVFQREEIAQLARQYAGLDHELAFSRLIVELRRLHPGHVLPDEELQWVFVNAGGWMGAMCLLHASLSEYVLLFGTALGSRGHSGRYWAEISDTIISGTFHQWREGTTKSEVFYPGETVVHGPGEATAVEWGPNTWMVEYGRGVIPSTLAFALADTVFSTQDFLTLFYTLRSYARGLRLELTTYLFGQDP
Sequence of Voltage-gated inwardly rectifying potassium channel KCNH2 (Q12809 whole entry): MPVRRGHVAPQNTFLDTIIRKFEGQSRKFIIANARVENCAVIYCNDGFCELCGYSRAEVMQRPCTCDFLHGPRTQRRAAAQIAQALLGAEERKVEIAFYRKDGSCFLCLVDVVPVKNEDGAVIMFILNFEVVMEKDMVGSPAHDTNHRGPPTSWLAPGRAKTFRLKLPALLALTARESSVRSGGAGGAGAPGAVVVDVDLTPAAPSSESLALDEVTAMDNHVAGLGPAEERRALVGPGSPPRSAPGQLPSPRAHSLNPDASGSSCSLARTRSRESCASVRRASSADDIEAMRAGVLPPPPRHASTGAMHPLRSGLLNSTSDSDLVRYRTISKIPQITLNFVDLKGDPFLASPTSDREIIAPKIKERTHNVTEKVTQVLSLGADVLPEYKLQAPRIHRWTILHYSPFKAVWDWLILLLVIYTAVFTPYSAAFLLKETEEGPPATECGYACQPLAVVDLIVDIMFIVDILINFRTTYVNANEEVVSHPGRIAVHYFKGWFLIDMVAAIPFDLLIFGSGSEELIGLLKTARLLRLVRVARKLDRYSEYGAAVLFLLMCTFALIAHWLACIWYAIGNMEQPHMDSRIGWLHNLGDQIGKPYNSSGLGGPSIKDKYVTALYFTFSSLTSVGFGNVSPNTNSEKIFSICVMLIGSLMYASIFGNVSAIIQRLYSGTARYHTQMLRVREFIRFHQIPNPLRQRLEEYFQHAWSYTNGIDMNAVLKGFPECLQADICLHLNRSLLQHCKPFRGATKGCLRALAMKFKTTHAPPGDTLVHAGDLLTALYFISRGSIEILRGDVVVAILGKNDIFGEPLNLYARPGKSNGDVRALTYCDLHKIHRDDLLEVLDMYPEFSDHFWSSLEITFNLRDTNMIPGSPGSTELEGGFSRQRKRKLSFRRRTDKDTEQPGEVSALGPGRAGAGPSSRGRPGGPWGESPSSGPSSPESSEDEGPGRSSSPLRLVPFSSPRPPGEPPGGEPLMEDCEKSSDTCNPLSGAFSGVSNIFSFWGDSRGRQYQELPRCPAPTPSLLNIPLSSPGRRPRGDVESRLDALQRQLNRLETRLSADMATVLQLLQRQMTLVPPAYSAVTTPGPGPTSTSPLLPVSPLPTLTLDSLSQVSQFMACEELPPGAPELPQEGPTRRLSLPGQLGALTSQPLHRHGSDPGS

On to `Cc1cc(OCCN2CCN(C)CC2)nn1-c1ccc(Cl)c(Cl)c1`, for which the microsomal CLint at 10 µM in [1] is 3 µL/min/mg. Half-maximal inhibition in data set [2] (IC50) was put at 7.4 µM. For the same molecule, the values for the Ki in [3] and in [4] were 0.0111 µM and over 1 µM, respectively. In data set [5], the inhibition in vivo at 16 mg/kg was 27%.
On to `c1ccc2cc(-n3ccc(OCCN4CCOCC4)n3)ccc2c1`, for which, in data set [1], the microsomal CLint at 10 µM is 6 µL/min/mg. This molecule also showed an IC50 in data set [2] of over 10 µM. The Ki in data set [3] is 0.0333 µM; in data set [4], over 1 µM. Also, in data set [6], the inhibition in vivo at 32 mg/kg is 55%.
As to `CC(C)C[C@H](CN)CC(=O)O` [PREGABALIN], the inhibition entry in [7] and in data set [8] was “Active” throughout. Also, the Activity result in data set [9] was “Toxic”.
